Reference: patent publication US5478812A, “Chromanol glycoside and method for production thereof” (CCI Corporation, priority 1993, dated 1995)
In brackets after ≈: the same amount, converted by molar mass. Read-outs that look alike come from different tables or passages of the source.

Legend:
thermal stability = assay type: physicochemical; settings: 5 mM solution in water/ethanol 1:3 v/v, read-out: Residual amounts (%) after 100 hours
Description: The chromanol glycoside obtained in Examples 1 to 5 [6-hydroxy-2,5,7,8-tetramethyl chroman-2-methyl-α-D-glucopyranoside represented by the aforementioned formula (4)], the chromanol glycoside obtained in Examples 6 to 8 [6-hydroxy-2,5,7,8-tetramethyl chroman-2-ethyl-α-D-glucopyranoside represented by the aforementioned formula (7)], the chromanol glycoside obtained in Examples 4 and 5 [6-hydroxy-2,5,7,8-tetramethyl chroman-2methyl-α-D-maltopyranoside represented by the aforementioned formula (5)], and the chromanol glycoside obtained in Example 8 [6-hydroxy-2,5,7,8-tetramethyl chroman-2-ethyl-α-D-maltopyranoside represented by the aforementioned formula (8)]were tested for thermal stability. Specifically, this test was performed by incubating a 5 mM chromanol glycoside solution (water/ethanol, 1:3 v/v) under varying temperature conditions. At regular intervals, aliquots of the reaction mixture were withdrawn and the residual amounts of chromanol glycoside were measured by HPLC. For the purpose of comparison, the 2-substituted alcohols represented by the aforementioned formulas (3) and (6), α-tocopherol, and Trolox were similarly tested.
It is clearly noted from these test results that the conversion of 2-substituted alcohols into corresponding glycosides enhances thermal stability.

solubility in water = assay type: physicochemical; settings: water, 25 °C, constant stirring at 200 rpm; HPLC; read-out: solubility in water (amounts of sample dissolved in 1 ml of water)
Description: The chromanol glycoside obtained in Examples 1 to 5 [6-hydroxy-2,5,7,8-tetramethyl chroman-2-methyl-α-D-glucopyranoside represented by the aforementioned formula (4)], the chromanol glycoside obtained in Examples 6 to 8 [6-hydroxy-2,5,7,8-tetramethyl chroman-2-ethyl-α-D-glucopyranoside represented by the aforementioned formula (7)], the chromanol glycoside obtained in Examples 4 and 5 [6-hydroxy-2,5,7,8-tetramethyl chroman-2-methyl-α-D-maltopyranoside represented by the aforementioned formula (5)], and the chromanol glycoside obtained in Example 8 [6-hydroxy-2,5,7,8-tetramethyl chroman-2-ethyl-α-D-maltopyranoside represented by the aforementioned formula (8)] were tested for solubility in water. Specifically, this test was performed by adding an excess amount of a given chromanol glycoside to 1 ml of water. The reaction mixture was incubated at 25° C. for […] with constant stirring at 200 rpm. After 100 hours, the reaction mixture was transferred into a membrane filter (produced by Nihon Millipore Ltd. and marketed under trademark designation of "HPLC Sample Prep C02-LG") and insoluble substances were removed by centrifugation (4,100×g, 10 minutes, 20° C.). The filtered solution was subjected to HPLC to determine the amount of chromanol glycoside remaining in the aqueous solution. For the purpose of comparison, the 2-substituted alcohols represented by the aforementioned formulas (3) and […] and Trolox were similarly tested.
The numerals given in the tables represent the amounts of sample dissolved in 1 ml of water.

pH stability = assay type: physicochemical; settings: 5.5 mM, buffer/ethanol 5:1 v/v, read-out: Residual amounts (%) after 100 hours
Description: The chromanol glycoside obtained in Examples 1 to 5 [6-hydroxy-2,5,7,8-tetramethyl chroman-2-methyl-α-D-glucopyranoside represented by the aforementioned formula (4)], the chromanol glycoside obtained in Examples 6 to 8 [6-hydroxy-2,5,7,8-tetramethyl chroman-2-ethyl-α-D-glucopyranoside represented by the aforementioned formula (7)], the chromanol glycoside obtained in Examples 4 and 5 [6-hydroxy-2,5,7,8-tetramethyl chroman-2-methyl-α-D-maltopyranoside represented by the aforementioned formula (5)], and the chromanol glycoside obtained in Example 8 [6 -hydroxy-2,5,7,8-tetramethyl chroman-2-ethyl-α-D-maltopyranoside represented by the aforementioned formula (8)] were tested for pH stability. This test was specifically performed by incubating a 5.5 mM chromanol glycoside solution (buffer/ethanol, 5:1 v/v) having a varying pH value. At regular intervals, aliquots of the reaction mixture were withdrawn and the residual amounts of chromanol glycoside were measured by HPC. For the purpose of comparison, the 2-substituted alcohols represented by the aforementioned formulas (3) and (6) and Trolox were similarly tested.
It is clearly noted from the test results that the conversion of 2-substituted alcohols into respective glycosides enhances pH stability. The buffer used for the test were 100 mM acetate buffer of pH 5.5, 100 mM phosphate buffer of pH 7.0, and 100 mM tris-HCl buffer of pH 8,5.

[1] = background statement, in words; cited from earlier work
[2] = hydroperoxidation of methyl linoleate via radical chain reaction in hexane/isopropyl alcohol; assay type: biochemical; settings: 0.1 μmol antioxidant in 1.1 ml hexane/isopropyl alcohol 1:1; 37 °C; oil-soluble radical generator; in words
Description: Antioxidant activity on the chromanol glycoside obtained in Examples 1 to 5 [6-hydroxy-2,5,7,8-tetramethyl chroman-2-methyl-α-D-glucopyranoside represented by the aforementioned formula (4)], the chromanol glycoside obtained in Examples 6 to 8 [6-hydroxy-2,5,7,8-tetramethyl chroman-2-ethyl-α-D-glucopyranoside represented by the aforementioned formula (7)], the chromanol glycoside obtained in Examples 4 and 5 [6-hydroxy-2,5,7,8-tetramethyl chroman-2-methyl-α-D-maltopyranoside represented by the aforementioned formula (5)], and the chromanol glycoside obtained in Example 8 [6-hydroxy-2,5,7,8-tetramethyl chroman-2-ethyl-α-D-maltopyranoside represented by the aforementioned formula (8)] was investigated by measuring the hydroperoxidation of methyl linoleate via radical chain reaction. Specifically, this test was performed by incubating 132 μmol of methyl linoleate, 16.5 μmol of an oil-soluble radical generator [2,2'-azo-bis(2,4-dimethyl valeronitrile)], 0.1 μmol of antioxidant in 1.1 ml of a hexane/isopropyl alcohol (1:1 v/v), and the mixture was incubated at 37° C. At regular intervals, aliquots of the reaction mixture were withdrawn and the amount of methyl linoleate hydroperoxides were measured by HPLC. […] EXAMPLE 10

[3] = antioxidant activity using liposomal membranes (phosphatidylcholine hydroperoxides); assay type: biochemical; settings: 0.1 μmol antioxidant in 1.1 ml 10 mM tris-HCl buffer pH 7.4; water-soluble radical generator; in words
Description: Antioxidant activity on the chromanol glycoside obtained in Examples 1 to 5 [6-hydroxy-2,5,7,8-tetramethyl chroman-2-methyl-α-D-glucopyranoside represented by the aforementioned formula (4)[, the chromanol glycoside obtained in Examples 6 to 8 [6-hydroxy-2,5,7,8-tetramethyl chroman-2-ethyl-α-D-glucopyranoside represented by the aforementioned formula (7)], the chromanol glycoside obtained in Examples 4 and 5 [6-hydroxy-2,5,7,8-tetramethyl chroman-2-methyl-α-D-maltopyranoside represented by the aforementioned formula (5)], and the chromanol glycoside obtained in Example 8 [6-hydroxy-2,5,7,8-tetramethyl chroman-2-ethyl-α-D-malto-pyranoside represented by the aforementioned formula (8)] was investigated by using a liposonal membranes. Specifically, this test was performed by adjusting a reaction solution consisting of 5.5 μmol of a multilameller liposomes of egg yolk phosphatidylcholine, 16.5 μmol of a water-soluble radical generator [2,2'-azo-bis(2-amidinopropane) dihydrochloride], and 0.1 μmol of antioxidant in 1.1 ml of a 10 mM tris-HCl buffer (pH 7.4). At regular intervals, aliquots of the reaction mixture were withdrawn and the amount of phosphatidylcholine hydroperoxides were measured by HPLC.

[4] = acetate buffer/ethanol 5:1, pH 5.5, pH 5.5 (100 mM acetate buffer)
[5] = phosphate buffer/ethanol 5:1, pH 7, pH 7.0 (100 mM phosphate buffer)
[6] = tris-hcl buffer/ethanol 5:1, pH 8.5, pH 8.5 (100 mM tris-HCl buffer)

solubility (solubility in water) | remaining at 100 h, 5500 µM (pH stability; [4]) | remaining at 100 h, 5500 µM (pH stability; [5]) | remaining at 100 h, 5500 µM (pH stability; [6]) | SMILES | remaining at 100 h, 5000 µM (thermal stability; water/ethanol 1:3, 50 °C) | remaining at 100 h, 5000 µM (thermal stability; water/ethanol 1:3, 60 °C) | remaining at 100 h, 5000 µM (thermal stability; water/ethanol 1:3, 70 °C) | solubility in water [1] | antioxidant activity (methyl linoleate hydroperoxides) [2] | antioxidant activity (phosphatidylcholine hydroperoxides) [3]
 |  |  |  | Cc1c(C)c2c(c(C)c1O)CCC(C)(CCCC(C)CCCC(C)CCCC(C)C)O2 (stereo not drawn) [α-Tocopherol, reference compound] | 85% | 79% | 30% |  |  | 
0.2 mg/mL (≈ 799 µM) | 75% | 35% | 13% | Cc1c(C)c2c(c(C)c1O)CCC(C)(C(=O)O)O2 (centres unmarked) [Trolox, 6-hydroxy-2,5,7,8-tetramethyl chroman-2-carboxylic acid, reference compound] |  |  |  | extremely low solubility in water |  | 
141 mg/mL | 57% | 16% | 2% | Cc1c(C)c2c(c(C)c1O)CCC(C)(CCO[C@H]1O[C@H](CO)[C@@H](O[C@H]3O[C@H](CO)[C@@H](O)[C@H](O)[C@H]3O)[C@H](O)[C@H]1O)O2 (stereo partly drawn) [formula (8), 6-hydroxy-2,5,7,8-tetramethyl chroman-2-ethyl-α-D-maltopyranoside] |  |  |  |  | excel 3,5-tert-butyl-4-hydroxytoluene and equal α-tocopherol | more effective antioxidants than ascorbic acid
